Reference: patent US11744863B2, “Process for preparing a pooled human platelet lysate, pooled human platelet lysate and its use for treating neurological disorders” (priority 2017, dated 2023)

Test: Body weight evolution of treated mice
Type: in vivo
Procedure: The mice enrolled were FVB-Tg(Sod1*G86R)M1Jwg/J mice from JAX laboratories. Animals were group-housed (10 per cage) in a temperature-controlled room (22±2° C.) with a 12/12-hour light/dark cycle. Food and water were feed ad-libitum. […] Breeding was realized (since 2013 may) in SOPF facility and genotyping is performed by qPCR (from tail biopsy). Animal are identified with earrings.
Mice were handled and weighted at the age of 60 days. Canula implantation in intra cerebro-ventricular (ICV) by stereotaxie start at this date and mice are acclimated during 1 week.
(Gurney and al, Neurology, 1998). Then they were evaluated, twice a week (i.e. body weight and neuroscore), from the age of 67 days to their death.
Two different treatments are performed from 75 days to death: • HT_pHPL prepared as described in example 1 and at 1 g/L, pH 7.4 versus vehicle. The dose of HT_pHPL administrated by intermittent ICV was 4 μL, three times a week at rate of 0.5 μL/min. […]

Nc1nc2ccc(OC(F)(F)F)cc2s1 [Riluzole]
day of body weight decrease (Tg mice FVB-Tg(Sod1*G86R)): 88 days
effect on body weight evolution (WT mice): no effect
